Test results reported in ChEMBL document CHEMBL1649074, “Aurora kinase inhibitors based on the imidazo[1,2-a]pyrazine core: fluorine and deuterium incorporation improve oral absorption and exposure” (J Med Chem, 2011).
One block for each compound: values may come before it.

Assays:
Mus musculus = experiment: Inhibition of Aurora B-mediated histone H3 phosphorylation in nude mouse xenografted with human A2780 cells at 100 mg/kg, po administered as single dose measured 2 hrs; assay type: functional; settings: A2780, 2 h
[1] = AUC (0 to 24 hrs) in cynomolgus monkey at 1 mg/kg, iv; assay type: ADME, organism-based, Macaca fascicularis; parameters: time < 24 hr, dose 1 mg/kg, route intravenous; settings: plasma
Canis familiaris [2] = experiment: (§1) AUC (0 to 24 hrs) in Beagle dog at 10 mg/kg, po; assay type: ADME, organism-based, Canis lupus familiaris, Plasma; parameters: time < 24 hr, dose 10 mg/kg, route oral; settings: in vivo, 24 h
[3] = Clearance in Beagle dog at 1 mg/kg, iv; assay type: ADME, organism-based, Canis lupus familiaris; parameters: dose 1 mg/kg, route intravenous; settings: in vivo
Canis familiaris [4] = experiment: AUC (0 to 24 hrs) in Beagle dog at 1 mg/kg, iv; assay type: ADME, organism-based, Canis lupus familiaris, Plasma; parameters: time < 24 hr, dose 1 mg/kg, route intravenous; settings: in vivo
Canis familiaris [5] = experiment: (§2) Oral bioavailability in Beagle dog at 10 mg/kg; assay type: ADME, organism-based, Canis lupus familiaris; settings: in vivo
[6] = Clearance in cynomolgus monkey at 0.3 mg/kg, iv; assay type: ADME, organism-based, Macaca fascicularis; parameters: dose 0.3 mg/kg, route intravenous; settings: in vivo
[7] = AUC (0 to 24 hrs) in cynomolgus monkey at 0.3 mg/kg, iv; assay type: ADME, organism-based, Macaca fascicularis; parameters: time < 24 hr, dose 0.3 mg/kg, route intravenous; settings: plasma
[8] = as §1; assay type: ADME, organism-based, Canis lupus familiaris, Plasma; parameters: time < 24 hr, dose 10 mg/kg, route oral; settings: beagle, plasma
[9] = Clearance in Beagle dog at 0.3 mg/kg, iv; assay type: ADME, organism-based, Canis lupus familiaris; parameters: dose 0.3 mg/kg, route intravenous; settings: in vivo
[10] = AUC (0 to 24 hrs) in Beagle dog at 0.3 mg/kg, iv; assay type: ADME, organism-based, Canis lupus familiaris; parameters: time < 24 hr, dose 0.3 mg/kg, route intravenous; settings: plasma
[11] = Oral bioavailability in cynomolgus monkey at 10 mg/kg; assay type: ADME, organism-based, Macaca fascicularis; settings: in vivo
[12] = Oral AUC in cynomolgus monkey at 10 mg/kg, po; assay type: ADME, organism-based, Macaca fascicularis; parameters: dose 10 mg/kg, route oral; settings: in vivo
[13] = as §2; assay type: ADME, organism-based, Canis lupus familiaris; settings: beagle, in vivo
[14] = Oral AUC in Beagle dog at 10 mg/kg, po; assay type: ADME, organism-based, Canis lupus familiaris; parameters: dose 10 mg/kg, route oral; settings: in vivo
[15] = AUC in CD1 mouse at 50 mg/kg, po; assay type: ADME, organism-based; parameters: dose 50 mg/kg, route oral; settings: plasma
[16] = Oral AUC in Sprague-Dawley rat at 30 mg/kg, po; assay type: ADME, organism-based; parameters: dose 30 mg/kg, route oral; settings: in vivo
[17] = molecular target: Tyrosine-protein kinase Lck (Homo sapiens, UniProt P06239); experiment: Inhibition of LCK
Tyrosine-protein kinase Lck, sequence (P06239 whole entry): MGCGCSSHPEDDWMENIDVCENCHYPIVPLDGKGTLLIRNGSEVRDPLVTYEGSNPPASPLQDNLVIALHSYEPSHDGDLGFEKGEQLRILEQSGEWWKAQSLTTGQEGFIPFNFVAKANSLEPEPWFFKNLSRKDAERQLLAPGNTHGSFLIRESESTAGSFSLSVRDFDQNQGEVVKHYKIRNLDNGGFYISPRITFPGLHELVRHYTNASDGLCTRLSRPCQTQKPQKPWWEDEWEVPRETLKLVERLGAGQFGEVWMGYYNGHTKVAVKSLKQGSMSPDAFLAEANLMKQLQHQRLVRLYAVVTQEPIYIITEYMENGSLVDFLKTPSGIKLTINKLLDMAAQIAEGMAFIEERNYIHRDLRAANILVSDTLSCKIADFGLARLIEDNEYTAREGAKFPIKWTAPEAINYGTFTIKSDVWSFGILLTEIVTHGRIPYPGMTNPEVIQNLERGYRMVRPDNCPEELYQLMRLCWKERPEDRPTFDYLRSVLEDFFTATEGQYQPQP

- AUC(0-t) at 24 h [1]: 9500 nM·h
- AUC (Canis familiaris [2]): 3100 nM·h
- clearance [3]: 0.27 L/h/kg
- AUC (Canis familiaris [4]): 9000 nM·h
- F (Canis familiaris [5]): 33%
SMILES: Cl.[2H]C([2H])(c1cc(Nc2nc(C)cn3c(-c4cn[nH]c4)cnc23)sn1)N1CCC(F)(F)C1
- inhibition in vivo at 100 mg/kg (Mus musculus): 83%

- clearance [6]: 1.08 L/h/kg
- AUC(0-t) at 24 h [7]: 700 nM·h
- AUC(0-t) at 24 h [8]: 2600 nM·h
- clearance [9]: 1.86 L/h/kg
- AUC(0-t) at 24 h [10]: 400 nM·h
- bioavailability [11]: 2%
- AUC [12]: 800 nM·h
- bioavailability [13]: 20%
- AUC [14]: 2600 nM·h
- AUC [15]: 9400 nM·h
- AUC [16]: 6900 nM·h
SMILES: Cc1cn2c(-c3cn[nH]c3)cnc2c(Nc2cc(CN3CCC(F)(F)C3)ns2)n1.Cl

- IC50 [17]: < 1 nM
SMILES: CCN(Cc1cc(Nc2nc(C)cn3c(-c4cn[nH]c4)cnc23)sn1)C(C)(C)CO
